From publication PMC8304761, “Development of an Androgen Receptor Inhibitor Targeting the N-Terminal Domain of Androgen Receptor for Treatment of Castration Resistant Prostate Cancer” (Cancers, 2021)

Legend:
[1] = test system: prostate specific antigen (PSA); experiment: Secreted PSA levels in LNCaP cells; assay type: cell-based; conditions: Homo sapiens; LNCaP cells; read-out: IC50, secreted PSA levels
From the text: Next, we tested the activity of VPC-220010 against full length AR using an AR-eGFP transcription assay in LNCaP cells. […] To further validate VPC-220010 as an AR inhibitor, we evaluated its ability to reduce the production of endogenous prostate specific antigen (PSA) in PCa cell lines. PSA is an AR-regulated serine protease and is widely used as a biomarker for PCa.

22Rv1 cells = experiment: Proliferation assay (PrestoBlue), 22Rv1; assay type: cell-based; conditions: Homo sapiens, 72 h, Figure 2D, read-out: IC50, viability of 22Rv1 cells
Protocol: (§1) Proliferation assay: LNCaP, 22Rv1 and PC3 cells were plated at 3000 cells per well in RPMI1640 containing 5% CSS in a 96-well plate, treated with 0.1 nm R1881 (a synthetic androgen) and test compounds (0–25 μM) for 72 h. Cell proliferation was determined using the PrestoBlue^TM cell proliferation assay following incubation with the compound […] over 72 h. In brief, 30 μL of the PrestoBlue^TM reagent was added to cells in each well of the 96-well plate containing 200 μL of media and incubated for 60 min at 37 °C in 5% CO2. The production of […]. Fluorescence measurement was read on a TECAN F200.
(§2) We then evaluated the effect of VPC-220010 on the proliferation of androgen-dependent LNCaP and ARV7-dependent 22Rv1 cells.

[2] = test system: ARV7-regulated genes UBE2C, AKT1 and CDC20; experiment: qPCR of ARV7-regulated genes in 22Rv1 cells; assay type: cell-based, human; conditions: Figure 5B
Protocol: Total RNA was extracted from cells with Trizol and the Qiagen RNeasy RNA Extraction Kit (Qiagen Germantown, MD, USA). Approximately 8 × 10^6 cells were collected per sample, with three biological replicates for each treatment. The concentrations and the qualities of the RNA samples were checked by Nanodrop. cDNA was prepared busing MMLV-Reverse Transcriptase (Thermo Fisher Scientific, Waltham, MA, USA). qRT-PCR was performed with LightCycler® 480 SYBR Green I Master (Roche, Basel, Switzerland).

LNCaP cells = experiment: Proliferation assay (PrestoBlue), LNCaP; assay type: cell-based; conditions: Homo sapiens, 72 h, R1881, Figure 2C, read-out: IC50, viability of LNCaP cells
Protocol: as §1, §2

AR-NTD (Gal4DBD-AR1-558) = biological target: T1, AR-NTD (Gal4DBD-AR1-558) (Homo sapiens, UniProt P10275); experiment: NTD-transactivation assay (mammalian two hybrid, forskolin) in LNCaP cells; assay type: cell-based; conditions: varying concentrations; Figure 3
T1 construct: expressed in transfected cells; host or cells: LNCaP
T1 sequence (P10275 1-558): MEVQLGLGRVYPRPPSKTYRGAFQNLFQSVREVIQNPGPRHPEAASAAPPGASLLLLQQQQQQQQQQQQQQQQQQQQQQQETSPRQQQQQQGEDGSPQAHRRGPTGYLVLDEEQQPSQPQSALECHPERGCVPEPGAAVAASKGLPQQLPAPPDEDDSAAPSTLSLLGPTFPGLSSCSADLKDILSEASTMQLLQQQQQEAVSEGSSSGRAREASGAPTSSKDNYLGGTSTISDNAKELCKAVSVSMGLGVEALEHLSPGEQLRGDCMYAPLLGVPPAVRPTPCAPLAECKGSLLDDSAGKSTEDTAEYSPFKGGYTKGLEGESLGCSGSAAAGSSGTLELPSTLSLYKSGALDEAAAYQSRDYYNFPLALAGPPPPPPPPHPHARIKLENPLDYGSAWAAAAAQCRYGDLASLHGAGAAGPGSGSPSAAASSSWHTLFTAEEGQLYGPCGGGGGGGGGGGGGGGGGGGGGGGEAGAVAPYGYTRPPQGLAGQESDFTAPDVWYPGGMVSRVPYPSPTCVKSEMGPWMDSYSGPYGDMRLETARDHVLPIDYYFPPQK
Protocol: Following 48 h incubation, cells were then treated with compounds at various concentrations and 0.1 nm R1881 (in 100% ethanol) for 24 h for AR assays. GR, ER, and PR activation was stimulated with 1 nm dexamethasone, estradiol, or progesterone, respectively. […] Cell lysis was carried out with 60 μL of 1× passive lysis buffer/well (Promega Madison, WI, USA). 20 μL of cell lysate from each well were mixed with 50 μL of luciferase assay reagent (Promega Madison, WI, USA), and luminescence was recorded on a TECAN M200pro plate reader.
To confirm the proposed mechanism of VPC-220010 we tested the effect of this compound on NTD-mediated transactivation. […] When incubated with forskolin, this system induces transcription activity through phosphorylation of the AR-NTD [10].

PSA = test system: PSA; parameters: method as in doi:10.1200/JCO.2019.37.7_suppl.257; conditions: patients, metastatic CRPC, low levels of circulating EPI-506; cited from earlier work

## CC(C)(c1ccc(OCC(O)CO)cc1)c1ccc(OCC(O)CCl)cc1 (stereo not drawn) [EPI-001, reference compound]
[1]
  IC50: > 25 µM
22Rv1 cells
  IC50: > 50 µM
[2]
  expression of ARV7-regulated genes UBE2C, AKT1 and CDC20 (qPCR): inhibited
LNCaP cells
  IC50: > 25 µM
AR-NTD (Gal4DBD-AR1-558)
  AR-NTD activity induced by forskolin: inhibited

## CC(=O)OC[C@H](COc1ccc(C(C)(C)c2ccc(OC[C@@H](CCl)OC(C)=O)cc2)cc1)OC(C)=O [EPI-506]
PSA
  decrease in PSA: 4–29%
